Measured values published in patent publication US20230227442A1, “HETEROALKYL DIHYDROQUINOLINE SULFONAMIDE COMPOUNDS” (AMGEN INC., priority 2020, published 2023).

Experiments:
Human Nav1.7 = target: T1, Human Nav1.7 (Homo sapiens, UniProt Q15858); assay: Ionworks Barracuda (IWB) automated patch clamp assay; format: cell-based; conditions: population patch clamp, HEK cells, 4 min compound incubation at -20 mV; read-out: hNaV1.7 IWB-U IC50
T1 construct: expressed in transfected cells; host or cells: Spiking HEK cells (without Kir2.1 transfection)
Procedure: Ionworks Barracuda Automated Patch Clamp Assay (Same Protocol for Both Human and Mouse)
Human Nav1.7 currents were recorded in population patch-clamp mode with the IWB automated electrophysiology system (Molecular Devices, LLC, Sunnyvale, Calif.). Spiking HEK cells (without Kir2.1 transfection) were cultured and prepared for recordings as previously described for IonWorks Quattro testing^1. The external solution consisted of the following (in mM): NaCl 140, KCl 5, CaCl2 2, MgCl2 1, HEPES 10, and glucose 11, pH 7.4, with N-methyl-D-glucamine at 320 mOsmol. The internal solution consisted of the following (in mM): KCl 70, KF 70, MgCl2 0.25, HEDTA 5, and HEPES 10, pH 7.25, with Nmethyl-D-glucamine, 300 mOsmol. From a holding potential of −110 mV, currents were elicited by a train of 26 depolarizations of 150 ms duration to −20 mV at a frequency of 5 Hz. Cells were then clamped to −20 mV for a period of 4 minutes in the presence of a single concentration of test compound. Following this compound incubation period, cells were clamped to −110 mV for three seconds to recover unbound channels and put through the same 26 pulse voltage protocol as above. Peak inward current during the 26th pulse to −20 mV in the presence of compound was divided by the peak inward current evoked by the 26th pulse to −20 mV in the absence of compound to determine percent inhibition. Concentration-response curves of percent inhibition as a function of concentration were generated to calculate IC50 values as described in Kornecook, T. J.; Yin, R.; Altmann, S.; et al. Pharmacologic Characterization of AMG8379, a Potent and Selective Small Molecule Sulfonamide Antagonist of the Voltage-Gated Sodium Channel NaV1. 7. J. Pharmacol. Exp. Ther. 2017, 362, 146-160.

CYP3A4 = assay: Human CYP 3A4 induction assay (mRNA, cryopreserved human hepatocytes); format: in vitro ADME; conditions: 72 hours, percent of control (POC); for CYP3A4 mRNA Induct Hu 2 uM POC: 2 uM test compound; for CYP3A4 mRNA Induct Hu 10 uM POC: 10 uM test compound
Procedure: Human CYP 3A4 Induction Assay
Cryopreserved human hepatocytes were seeded in 96-well collagen coated plates at 70,000 cells per well in hepatocyte plating media (HPM, final concentrations: lx Dulbecco's Modified Eagle's Medium, 0.1 μM dexamethasone, 10% fetal bovine serum, lx ITS, 1×PSG) followed by incubation at 37° C. under 5% CO2 and 90% relative humidity for 2 days to allow hepatocytes to form a confluent layer. On Day 3, hepatocytes were treated with either test compound or rifampin (20 μM, positive control for CYP3A induction) prepared in hepatocyte incubation media ((HIM, final concentrations: 1× William's Medium E, 0.1 μM dexamethasone, 1×ITS, 1×PSG). Treatment was performed for 72 hours with either 2 concentrations (2 μM or 10 μM) or a range of concentrations (0.001 μM to 100 μM) of the test compound to obtain full dose-response curve. Fresh media containing the relevant concentrations of the test compound was replaced every day until the samples were processed. After 72 hours of incubation, samples were processed for mRNA analysis using bDNA technology using manufacturer's instructions (Affymetrix, Fremont, Calif.). Cell viability was tested at the end of the experiment using MTT assay kit (Roche Diagnostics, Basel, Switzerland). Data was analyzed and presented as percent of control (POC) and Emax and EC50 obtained when appropriate according to guidance from Center for Drug Evaluation and Research (CDER), 2006, Guidance for Industry, Drug Interaction Studies—Study Design, Data Analysis, and Implications for Dosing and Labeling.
Cryopreserved human hepatocytes were seeded in 96-well collagen coated plates at 70,000 cells per well in hepatocyte plating media (HPM, final concentrations: lx Dulbecco's Modified Eagle's Medium, 0.1 μM dexamethasone, 10% fetal bovine serum, lx ITS, 1×PSG) followed by incubation at 37° C. under 5% CO2 and 90% relative humidity for 2 days to allow hepatocytes to form a confluent layer. On Day 3, hepatocytes were treated with either test compound or rifampin (20 μM, positive control for CYP3A induction) prepared in hepatocyte incubation media ((HIM, final concentrations: 1× William's Medium E, 0.1 μM dexamethasone, 1×ITS, 1×PSG). Treatment was performed for 72 hours with either 2 concentrations (2 μM or 10 μM) or a range of concentrations (0.001 μM to 100 μM) of the test compound to obtain full dose-response curve. Fresh media containing the relevant concentrations of the test compound was replaced every day until the samples were processed. After 72 hours of incubation, samples were processed for mRNA analysis using bDNA technology using manufacturer's instructions (Affymetrix, Fremont, Calif.). Cell viability was tested at the end of the experiment using MTT assay kit (Roche Diagnostics, Basel, Switzerland). Data was analyzed and presented as percent of control (POC) and Emax and EC50 obtained when appropriate, as described in Halladay, J. et al, 2012, An “all-inclusive” 96-well cytochrome P450 induction method: Measuring enzyme activity, mRNA levels, protein levels, and cytotoxicity from one well using cryopreserved human hepatocytes, Pharmacological and Toxicological Methods, 66:270-275.

T1 sequence (Q15858 whole entry): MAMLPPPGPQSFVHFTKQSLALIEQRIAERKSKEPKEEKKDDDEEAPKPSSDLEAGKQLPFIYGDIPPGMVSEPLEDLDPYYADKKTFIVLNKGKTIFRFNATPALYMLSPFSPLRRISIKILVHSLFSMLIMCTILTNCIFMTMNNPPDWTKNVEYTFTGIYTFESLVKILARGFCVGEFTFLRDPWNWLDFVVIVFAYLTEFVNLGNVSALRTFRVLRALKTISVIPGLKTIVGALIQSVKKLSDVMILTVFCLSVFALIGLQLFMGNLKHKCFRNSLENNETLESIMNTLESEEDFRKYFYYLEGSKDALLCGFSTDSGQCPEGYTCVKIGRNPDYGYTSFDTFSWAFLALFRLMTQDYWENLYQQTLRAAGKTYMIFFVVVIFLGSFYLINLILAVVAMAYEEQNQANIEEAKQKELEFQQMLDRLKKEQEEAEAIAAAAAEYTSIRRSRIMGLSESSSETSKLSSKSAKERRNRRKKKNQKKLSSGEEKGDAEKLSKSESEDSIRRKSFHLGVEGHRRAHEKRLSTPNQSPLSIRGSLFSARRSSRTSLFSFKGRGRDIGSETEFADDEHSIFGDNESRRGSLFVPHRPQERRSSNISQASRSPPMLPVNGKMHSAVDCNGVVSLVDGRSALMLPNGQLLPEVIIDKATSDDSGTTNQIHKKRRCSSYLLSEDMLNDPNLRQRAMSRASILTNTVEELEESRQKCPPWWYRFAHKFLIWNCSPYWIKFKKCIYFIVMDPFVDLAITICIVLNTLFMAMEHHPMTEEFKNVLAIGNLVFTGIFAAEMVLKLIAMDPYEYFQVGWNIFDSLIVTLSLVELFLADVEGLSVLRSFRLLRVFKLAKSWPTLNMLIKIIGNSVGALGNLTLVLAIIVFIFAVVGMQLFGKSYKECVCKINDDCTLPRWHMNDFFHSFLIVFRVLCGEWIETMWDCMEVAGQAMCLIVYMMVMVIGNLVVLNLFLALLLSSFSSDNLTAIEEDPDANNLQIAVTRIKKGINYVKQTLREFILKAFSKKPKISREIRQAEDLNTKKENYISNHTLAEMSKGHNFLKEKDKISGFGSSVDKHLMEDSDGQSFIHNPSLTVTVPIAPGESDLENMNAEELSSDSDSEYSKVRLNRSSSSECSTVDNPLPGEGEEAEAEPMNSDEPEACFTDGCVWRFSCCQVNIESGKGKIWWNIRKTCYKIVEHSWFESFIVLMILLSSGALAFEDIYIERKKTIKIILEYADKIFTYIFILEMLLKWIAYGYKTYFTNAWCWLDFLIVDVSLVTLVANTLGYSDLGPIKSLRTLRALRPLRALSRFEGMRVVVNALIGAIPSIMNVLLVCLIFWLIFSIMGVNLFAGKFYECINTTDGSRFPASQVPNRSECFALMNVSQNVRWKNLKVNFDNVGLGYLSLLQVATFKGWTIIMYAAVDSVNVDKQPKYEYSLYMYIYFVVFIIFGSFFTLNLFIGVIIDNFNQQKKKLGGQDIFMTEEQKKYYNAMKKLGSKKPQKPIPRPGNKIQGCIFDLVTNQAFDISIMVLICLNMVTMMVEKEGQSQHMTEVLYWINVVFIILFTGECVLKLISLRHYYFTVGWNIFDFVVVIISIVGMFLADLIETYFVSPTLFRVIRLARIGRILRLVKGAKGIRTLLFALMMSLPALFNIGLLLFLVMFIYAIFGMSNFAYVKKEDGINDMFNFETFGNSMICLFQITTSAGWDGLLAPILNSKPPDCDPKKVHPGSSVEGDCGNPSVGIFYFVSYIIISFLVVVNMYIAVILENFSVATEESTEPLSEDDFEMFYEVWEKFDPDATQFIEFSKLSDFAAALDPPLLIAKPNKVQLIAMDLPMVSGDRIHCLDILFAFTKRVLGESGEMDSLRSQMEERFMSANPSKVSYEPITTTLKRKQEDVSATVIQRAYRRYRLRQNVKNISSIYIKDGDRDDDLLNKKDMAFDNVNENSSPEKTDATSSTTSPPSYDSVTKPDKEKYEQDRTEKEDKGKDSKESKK

Row | SMILES | IC50 (Human Nav1.7) [nM] | CYP3A4 mRNA Induct Hu 2 uM POC (CYP3A4) [%] | CYP3A4 mRNA Induct Hu 10 uM POC (CYP3A4) [%]
1 | COc1cc(O[C@H](C)C(F)(F)F)c(F)cc1-n1c(=O)ccc2cc(S(=O)(=O)Nc3ccon3)c(F)cc21 (atropisomer, axis not shown; (P)) [Example 16, (P)-(R)-7-fluoro-1-(5-fluoro-2-methoxy-4-((1,1,1-trifluoropropan-2-yl)oxy)phenyl)-N-(isoxazol-3-yl)-2-oxo-1,2-dihydroquinoline-6-sulfonamide] | 24 | 3.9 | 7.2
2 | COc1cc(O[C@@H](C)C(F)(F)F)c(F)cc1-n1c(=O)ccc2cc(S(=O)(=O)Nc3ccon3)ccc21 (atropisomer, axis not shown; (P)) [Example 18, (P)-(S)-1-(5-fluoro-2-methoxy-4-((1,1,1-trifluoropropan-2-yl)oxy)phenyl)-N-(isoxazol-3-yl)-2-oxo-1,2-dihydroquinoline-6-sulfonamide] | 27 | 2.6 | 9.5
3 | COc1cc(SC(F)(F)F)c(F)cc1-n1c(=O)ccc2cc(S(=O)(=O)Nc3ccon3)ccc21 (atropisomer, axis not shown; (P)) [Example 8, (P)-1-(5-fluoro-2-methoxy-4-((trifluoromethyl)thio)phenyl)-N-(isoxazol-3-yl)-2-oxo-1,2-dihydroquinoline-6-sulfonamide] | 15 | 6.1 | 24.5
4 | COc1cc(COC(F)(F)F)c(F)cc1-n1c(=O)ccc2cc(S(=O)(=O)Nc3ccon3)ccc21 (atropisomer, axis not shown; (P)) [Example 4, (P)-1-(5-fluoro-2-methoxy-4-((trifluoromethoxy)methyl)phenyl)-N-(isoxazol-3-yl)-2-oxo-1,2-dihydroquinoline-6-sulfonamide] | 11 | 0.2 | 0.2
5 | COc1cc(O[C@@H](C)C(F)(F)F)c(F)cc1-n1c(=O)ccc2cc(S(=O)(=O)Nc3ccon3)c(F)cc21 (atropisomer, axis not shown; (P)) [Example 17, (P)-(S)-7-fluoro-1-(5-fluoro-2-methoxy-4-((1,1,1-trifluoropropan-2-yl)oxy)phenyl)-N-(isoxazol-3-yl)-2-oxo-1,2-dihydroquinoline-6-sulfonamide] | 27 | 16.3 | 39.8
6 | COc1cc(OC(F)(F)F)c(F)cc1-n1c(=O)ccc2cc(S(=O)(=O)Nc3ccon3)ccc21 (atropisomer, axis not shown; (P)) [Example 9, (P)-1-(5-fluoro-2-methoxy-4-(trifluoromethoxy)phenyl)-N-(isoxazol-3-yl)-2-oxo-1,2-dihydroquinoline-6-sulfonamide] | 21 | 7.8 | 22.2
7 | COc1cc(SC(F)(F)F)c(F)cc1-n1c(=O)cc(F)c2cc(S(=O)(=O)Nc3ccon3)ccc21 [Example 11, P-4-fluoro-1-(5-fluoro-2-methoxy-4-((trifluoromethyl)thio)phenyl)-N-(isoxazol-3-yl)-2-oxo-1,2-dihydroquinoline-6-sulfonamide] | 10 | 7.3 | 48.1
8 | COc1cc(O[C@H](C)C(F)(F)F)c(F)cc1-n1c(=O)ccc2cc(S(=O)(=O)Nc3ccon3)ccc21 (atropisomer, axis not shown; (P)) [Example 21, (P)-(R)-1-(5-fluoro-2-methoxy-4-((1,1,1-trifluoropropan-2-yl)oxy)phenyl)-N-(isoxazol-3-yl)-2-oxo-1,2-dihydroquinoline-6-sulfonamide] | 32 | 0.4 | 1.8

Further lines, results first:

Row | IC50 (Human Nav1.7) [nM] | CYP3A4 mRNA Induct Hu 2 uM POC (CYP3A4) [%] | CYP3A4 mRNA Induct Hu 10 uM POC (CYP3A4) [%] | SMILES
9 | 102 | 11.5 | 38.0 | COc1cc(OCC(F)(F)F)c(F)cc1-n1c(=O)c(F)cc2cc(S(=O)(=O)Nc3ccon3)ccc21 (atropisomer, axis not shown; (P)) [Example 25, (P)-3-fluoro-1-(5-fluoro-2-methoxy-4-(2,2,2-trifluoroethoxy)phenyl)-N-(isoxazol-3-yl)-2-oxo-1,2-dihydroquinoline-6-sulfonamide]
10 | 11 | 20.9 | 54.2 | COc1cc(SC(F)(F)F)c(F)cc1-n1c(=O)ccc2cc(S(=O)(=O)Nc3ccon3)c(F)cc21 (atropisomer, axis not shown; (P)) [Example 7, (P)-7-fluoro-1-(5-fluoro-2-methoxy-4-((trifluoromethyl)thio)phenyl)-N-(isoxazol-3-yl)-2-oxo-1,2-dihydroquinoline-6-sulfonamide]
11 | 11 | 18.3 | 30.1 | COc1cc(COC(F)(F)F)c(F)cc1-n1c(=O)ccc2cc(S(=O)(=O)Nc3ccon3)c(F)cc21 (atropisomer, axis not shown; (P)) [Example 6, (P)-7-fluoro-1-(5-fluoro-2-methoxy-4-((trifluoromethoxy)methyl)phenyl)-N-(isoxazol-3-yl)-2-oxo-1,2-dihydroquinoline-6-sulfonamide]
12 | 39 | 7.4 | 25.1 | COc1cc(SC(F)(F)F)ccc1-n1c(=O)ccc2cc(S(=O)(=O)Nc3ccon3)ccc21 (atropisomer, axis not shown; (P)) [Example 23]
